# Reference: ChEMBL document CHEMBL1129210, “Epidermal growth factor receptor tyrosine kinase: Structure-activity relationships and antitumour activity of novel quinazolines” (Bioorg Med Chem Lett, 1997)
# Biological target: Epidermal growth factor receptor (Homo sapiens, UniProt P00533)
# Test: Tested for inhibition of Epidermal growth factor receptor from A431 vulval squamous carcinoma cells
# Epidermal growth factor receptor, sequence (P00533 whole entry): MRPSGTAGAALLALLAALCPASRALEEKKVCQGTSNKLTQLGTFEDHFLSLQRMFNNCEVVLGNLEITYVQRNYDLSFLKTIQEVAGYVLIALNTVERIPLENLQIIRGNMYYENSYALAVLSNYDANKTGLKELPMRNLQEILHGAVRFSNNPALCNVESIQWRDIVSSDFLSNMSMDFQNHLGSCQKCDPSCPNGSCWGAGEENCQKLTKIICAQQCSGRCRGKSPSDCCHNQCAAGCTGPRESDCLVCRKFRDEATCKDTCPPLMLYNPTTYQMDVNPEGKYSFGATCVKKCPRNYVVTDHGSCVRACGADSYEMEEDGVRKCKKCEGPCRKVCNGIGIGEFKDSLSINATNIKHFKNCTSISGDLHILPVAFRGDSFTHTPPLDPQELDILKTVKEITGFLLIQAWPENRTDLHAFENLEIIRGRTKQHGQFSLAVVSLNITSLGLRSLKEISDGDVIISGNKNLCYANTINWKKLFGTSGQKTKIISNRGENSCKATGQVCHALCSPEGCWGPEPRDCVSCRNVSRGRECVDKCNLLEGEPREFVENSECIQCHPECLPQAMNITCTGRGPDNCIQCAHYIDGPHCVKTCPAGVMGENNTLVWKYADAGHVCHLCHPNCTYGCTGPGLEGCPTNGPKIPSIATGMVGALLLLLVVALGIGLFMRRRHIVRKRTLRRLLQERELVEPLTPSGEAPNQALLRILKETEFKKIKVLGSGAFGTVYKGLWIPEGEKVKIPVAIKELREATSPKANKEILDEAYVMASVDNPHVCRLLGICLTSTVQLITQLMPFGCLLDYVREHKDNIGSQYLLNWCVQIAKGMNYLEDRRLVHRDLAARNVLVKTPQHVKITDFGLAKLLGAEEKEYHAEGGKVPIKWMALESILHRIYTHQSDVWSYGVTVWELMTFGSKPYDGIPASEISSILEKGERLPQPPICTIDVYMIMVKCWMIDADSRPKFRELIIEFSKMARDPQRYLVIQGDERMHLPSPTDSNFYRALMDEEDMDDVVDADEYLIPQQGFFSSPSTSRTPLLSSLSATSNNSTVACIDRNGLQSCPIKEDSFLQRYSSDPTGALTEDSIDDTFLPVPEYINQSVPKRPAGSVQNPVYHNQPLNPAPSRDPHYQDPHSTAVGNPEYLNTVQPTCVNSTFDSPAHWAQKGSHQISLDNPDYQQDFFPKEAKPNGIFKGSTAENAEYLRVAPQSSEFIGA
row,SMILES,IC50 [nM]
1,COc1cc2ncnc(Nc3cncc4ccccc34)c2cc1OC,6.4
2,COc1cc2ncnc(N3CCc4ccccc43)c2cc1OC,820
3,COc1cc2ncnc(NCc3cccc(C)c3)c2cc1OC,170
4,COc1cc2ncnc(NC3CC3c3ccccc3)c2cc1OC(C)=O (centres undefined),84
5,COc1cc2ncnc(NC3CC3c3ccccc3)c2cc1O (centres undefined),390
6,COc1cc2ncnc(/N=N/c3ccc(F)c(Cl)c3)c2cc1OC,730
7,COc1cc2ncnc(NC3CC3c3ccccc3)c2cc1OCCCN(C)C (centres undefined),27
8,COc1cc2ncnc(NNc3ccc(F)c(Cl)c3)c2cc1OC,430
9,COc1cc2ncnc(NC3CC3c3ccccc3)c2cc1OCCN1CCOCC1 (centres undefined),300
10,COc1cc2ncnc(NC3CC3c3ccccc3)c2cc1OC (centres undefined),10
11,COc1cc2ncnc(Nc3cnc4ccccc4n3)c2cc1OC,780
12,COc1cc2ncnc(NC3CCc4ccccc43)c2cc1OC (centres undefined),910
13,COc1cc2ncnc(Nc3nnc4ccccc4n3)c2cc1OC,820
14,COc1cc2ncnc(Nc3nccc4ccccc34)c2cc1OC,200
